Results from patent US11185100B2 (priority 2014, dated 2021).
Like-named read-outs stand apart in the source and are kept apart here.

Columns and labels:
[1] = target: T1R1/T1R3 receptor (Felis catus, UniProt E3UMS2); assay: Activation of T1R1/T1R3 receptor by transmembrane compounds and nucleotide derivatives, conducted as in Examples 1, 2 and 5 (Example 7); assay type: cell-based, cat; conditions: for Activity: modulation of T1R1/T1R3
Source text: Methods: HEK293 cells that stably express T1R3 and inducibly express T1R1 were exposed to nucleotide derivatives alone to activate the umami receptor. Activation of the T1R1/T1R3 receptor was detected by a change in intracellular calcium levels using a calcium sensitive fluorescent dye. Cells that express T1R3 but not T1R1 were used as a control. A FLIPR® Tetra or a FlexStation® 3 was used for data capture.
(§1) Methods: HEK293 cells that stably express T1R3 and inducibly express T1R1 were exposed to nucleotide derivatives alone or in combination with one or more amino acids and/or one or more nucleotides to activate the umami receptor. Activation of the T1R1/T1R3 receptor was detected by a change in intracellular calcium levels using a calcium sensitive fluorescent dye and/or a luminescent reporter system. Cells that express T1R3 but not T1R1 were used as a control. A FLIPR® Tetra or a FlexStation® 3 was used for data capture.
Methods: HEK293 cells that stably express T1R3 and inducibly express T1R1 were exposed to transmembrane compounds alone or in combination with one or more amino acids and/or one or more nucleotides to activate the umami receptor. Activation of the T1R1/T1R3 receptor was detected by a change in intracellular calcium levels using a calcium sensitive fluorescent dye. Cells that express T1R3 but not T1R1 were used as a control. A FLIPR® Tetra or a FlexStation® 3 was used for data capture.
In each experiment, serial dilutions of up to 10 mM of the transmembrane compound were added to the T1R1/T1R3-expressing cells.

[2] = target: cat T1R1/T1R3 receptor (Felis catus, UniProt E3UMS2); assay: cell-based; assay type: cell-based
Source text: as §1

[3] = read-out: EC50 +Alanine (20 mM)
[4] = read-out: EC50 +Alanine (20 mM) + IMP (0.2 mM)

Row | SMILES | Max resp ΔF/F +Alanine (20 mM) [1] | Thres +Alanine (20 mM) [1] [mM] | Max resp % of Ala +IMP (0.2 mM) ([1]; +IMP (0.2 mM)) | Max resp ΔF/F +IMP (0.2 mM) ([1]; +IMP (0.2 mM)) | Thres +IMP (0.2 mM) ([1]; +IMP (0.2 mM)) [mM] | Max resp % of IMP +Alanine (20 mM) ([1]; hek293 cells) | Activity [1] | other results
1 | O=C(O)C1CCCCC1C(=O)Nc1cc(Cl)cc(Cl)c1 (stereo not drawn) [2-((3,5-dichlorophenyl)carbamoyl)cyclohexanecarboxylic acid] | 1.1200 ΔF/F | 0.1 | 157.9 % of Ala | 1.2275 ΔF/F | 0.03 | 163.5 % of IMP | active | 
2 | Nc1ccccc1C(=O)NCCc1ccccc1 [2-amino-N-phenethylbenzamide] | 0.6400 ΔF/F | 0.3 | 194.5 % of Ala | 1.5125 ΔF/F | 0.01 | 93.4 % of IMP | active | 
3 | N[C@@H](Cc1c[nH]cn1)C(=O)O [L-Histidine, L-histidine, reference compound] |  |  | 36.3 % of Ala | 0.2825 ΔF/F | 10.0 |  |  | 
4 | O=C(NCCc1ccccc1)c1ccccc1 [N-phenethylbenzamide] | 0.1400 ΔF/F | 0.6 | 126.0 % of Ala | 0.9800 ΔF/F | 0.01 | 20.4 % of IMP | active | 
5 | N[C@@H](CO)C(=O)O [L-Serine, reference compound] |  |  | 100.0 % of Ala | 0.7775 ΔF/F | 3.0 |  |  | 
6 | CC(C)CC(NC(=O)c1ccccc1)C(N)=O (racemic) | 0.8600 ΔF/F | 0.3 | 204.5 % of Ala | 1.5900 ΔF/F | 0.1 | 125.5 % of IMP | active | EC50 ([1]; +0.2 mM IMP, read-out: T1R1/T1R3 EC50): 470 ± 70 µM; EC50 ([1]; alone in buffer, read-out: T1R1/T1R3 EC50): > 600 µM; EC50 ([1]; read-out: T1R1/T1R3 EC50): > 1000 µM
7 | O=C(NCCc1ccccc1)c1ccc2c(c1)OCO2 [N-phenethylbenzo[d][1,3]dioxole-5-carboxamide] | 0.0775 ΔF/F | 1.0 | 92.0 % of Ala | 0.7150 ΔF/F | 0.01 | 11.3 % of IMP | active | 
8 | O=C(NCCc1c[nH]c2ccccc12)c1cccnc1 [N-(2-(1H-indol-3-yl)ethyl)nicotinamide, N-(2-(1H-Indol-3-yl)ethyl)nicotinamide] | 1.1400 ΔF/F | 0.03 | 170.1 % of Ala | 1.3225 ΔF/F | 0.003 | 166.4 % of IMP | active | EC50 [1, 3]: > 100 µM
9 | CCCCc1nn(CC(=O)N2CCCC2)c(=O)n1Cc1ccccc1 [4-benzyl-3-butyl-1-(2-oxo-2-(pyrrolidin-1-yl)ethyl)-1H-1,2,4-triazol-5(4H)-one] | 0.8900 ΔF/F | 0.3 | 193.2 % of Ala | 1.5025 ΔF/F | 0.1 | 129.9 % of IMP | active | EC50 ([1]; compound alone in buffer, read-out: EC50 +buffer (alone)): > 600 µM; EC50 [1, 3]: > 600 µM; EC50 [1, 4]: > 600 µM; EC50 ([1]; read-out: EC50 +IMP (0.2 mM), +IMP (0.2 mM)): > 600 µM
10 | O=P(O)(O)OP(=O)(O)OP(=O)(O)OC[C@H]1O[C@@H](n2cnc3c(Cl)ncnc32)[C@H](O)[C@@H]1O [6-Chloropurine riboside-5′-O-triphosphate] |  |  | 30.2 % of Ala | 0.2350 ΔF/F | 0.003 |  | active | Max resp % of IMP +Alanine (20 mM) ([1]; +Alanine (20 mM)): 50.4 % of IMP; Max resp ΔF/F +Alanine (20 mM) ([1]; +Alanine (20 mM)): 0.3450 ΔF/F; Thres +Alanine (20 mM) ([1]; +Alanine (20 mM)): 0.01 mM; Max resp. (ΔF/F) [2]: 0.345 ΔF/F; Threshold [2]: 0.01 mM; Max. resp. % of IMP ([2]; hek293 cells): 50.4 % of IMP
11 | O=C(NCCCCNC(=O)c1cccnc1)c1cccnc1 [N,N′-(butane-1,4-diyl)dinicotinamide] | 0.0650 ΔF/F | 1.0 | 49.2 % of Ala | 0.3825 ΔF/F | 0.1 | 9.5 % of IMP | active | EC50 [1, 4]: 610 µM; EC50 ([1]; read-out: T1R1/T1R3 EC50): 610 ± 360 µM
12 | CCOC(=O)NC(=O)C(c1ccccc1)c1ccccc1 [Ro 01-6128, reference compound] |  |  | 199.7 % of Ala | 1.5525 ΔF/F | 0.01 |  | active | Max resp % of IMP +Alanine (20 mM) ([1]; +Alanine (20 mM)): 74.8 % of IMP; Max resp ΔF/F +Alanine (20 mM) ([1]; +Alanine (20 mM)): 0.5125 ΔF/F; Thres +Alanine (20 mM) ([1]; +Alanine (20 mM)): 0.3 mM
13 | CSCC[C@H](N)C(=O)O [L-Methionine, reference compound] |  |  |  |  |  |  |  | Max resp ΔF/F +IMP (0.2 mM) [1]: 0.3500 ΔF/F; Thres +IMP (0.2 mM) [1]: 30.0 mM; Max resp % of Ala +IMP (0.2 mM) ([1]; hek293 cells): 45.0 % of Ala
14 | N[C@@H](Cc1ccc(O)cc1)C(=O)O [L-Tyrosine, reference compound] |  |  | 38.0 % of Ala |  | 3.0 |  |  | Max resp ΔF/F +IMP (0.2 mM) [1]: 0.2958 ΔF/F
15 | O=C(NCCc1ccccc1)c1cccnc1 [N-phenethylnicotinamide] | 0.5725 ΔF/F | 0.1 | 149.5 % of Ala | 1.1625 ΔF/F | 0.03 | 83.6 % of IMP | active | EC50 ([1]; read-out: T1R1/T1R3 EC50): > 300 µM
16 | CC(=O)Nc1ccc(C(=O)Nc2cc(-c3ccccc3)nn2CCO)cc1 [4-acetamido-N-(1-(2-hydroxyethyl)-3-phenyl-1H-pyrazol-5-yl)benzamide] | 0.0125 ΔF/F |  | 58.8 % of Ala | 0.4575 ΔF/F |  | 1.8 % of IMP | active | 
17 | N[C@@H](Cc1ccccc1)C(=O)O [L-Phenylalanine, reference compound] |  |  | 75.9 % of Ala | 0.5900 ΔF/F | 0.1 |  |  | 
18 | N[C@@H](CS)C(=O)O [L-Cysteine, reference compound] |  |  | 74.6 % of Ala | 0.5800 ΔF/F | 10.0 |  |  | 
19 | Nc1nc2c(ncn2[C@@H]2O[C@H](COP(=O)(O)O)[C@@H](O)[C@H]2O)c(=O)[nH]1 [Guanosine monophosphate (GMP), guanosine monophosphate, reference compound] |  |  |  |  |  |  |  | Max resp % of IMP +Alanine (20 mM) ([1]; +Alanine (20 mM)): 114.6 % of IMP; Max resp ΔF/F +Alanine (20 mM) ([1]; +Alanine (20 mM)): 0.7850 ΔF/F; Thres +Alanine (20 mM) ([1]; +Alanine (20 mM)): 0.01 mM
20 | N[C@@H](Cc1c[nH]c2ccccc12)C(=O)O [L-Tryptophan, reference compound] |  |  | 86.8 % of Ala | 0.6750 ΔF/F | 0.1 |  |  | 
